≈ marks a conversion by molar mass, not a printed value.
What was measured:
Assay in all cases: ≥ marks a high value that may be exact or a test limit, other limits are often not marked, values filed in µg/mL are converted to µM
[1] = test system: Bacillus subtilis
[2] = test system: Escherichia coli
[3] = test system: Bacillus cereus
[4] = test system: Staphylococcus aureus

Row | Compound | MIC [1] [µM] | MIC [2] [µM] | MIC [3] [µM] | MIC [4] [µM]
1 | CC[C@H](C)[C@H](N)C(=O)N[C@@H](CC(N)=O)C(=O)N[C@@H](Cc1c[nH]c2ccccc12)C(=O)N[C@@H](CCCCN)C(=O)N[C@@H](CCCCN)C(=O)N[C@H](C(=O)N[C@@H](C)C(=O)N[C@@H](CO)C(=O)N[C@H](C(=O)NCC(=O)N[C@@H](CCCCN)C(=O)N[C@@H](CCC(=O)O)C(=O)N[C@H](C(=O)N[C@@H](CC(C)C)C(=O)N[C@@H](CCCCN)C(=O)N[C@@H](C)C(N)=O)C(C)C)[C@@H](C)CC)[C@@H](C)CC [INWKKIASIGKEVLKA] | ≥ 70 | 75 (≈ 135 µg/mL) |  | 
2 | CC[C@H](C)[C@H](N)C(=O)N[C@@H](CC(N)=O)C(=O)N[C@@H](Cc1c[nH]c2ccccc12)C(=O)N[C@@H](CC(C)C)C(=O)N[C@@H](CCCCN)C(=O)N[C@@H](CC(C)C)C(=O)NCC(=O)N[C@@H](CCCCN)C(=O)N[C@@H](CCCCN)C(=O)N[C@H](C(=O)N[C@@H](CC(C)C)C(=O)NCC(=O)N[C@@H](C)C(=O)N[C@H](C(N)=O)[C@@H](C)CC)[C@@H](C)CC [INWLKLGKKILGAI] | 25 (≈ 39.2 µg/mL) | 67.5 (≈ 106 µg/mL) |  | 
3 | CC(C)[C@H](NC(=O)[C@H](CO)NC(=O)[C@@H](NC(=O)[C@H](CCCCN)NC(=O)[C@H](C)NC(=O)[C@@H](NC(=O)[C@@H](NC(=O)[C@H](CCCCN)NC(=O)[C@@H](NC(=O)[C@H](Cc1ccccc1)NC(=O)[C@H](CO)NC(=O)[C@H](CS)NC(=O)[C@@H]1CCCN1C(=O)[C@H](Cc1ccc(O)cc1)NC(=O)[C@H](CO)NC(=O)CNC(=O)[C@H](CCCCN)NC(=O)CNC(=O)[C@@H](NC(=O)[C@@H](N)CCCCN)C(C)C)C(C)C)C(C)C)C(C)C)C(C)C)C(=O)O [KVGKGSYPCSFVKVVAKVSV] |  | > 123 | ≥ 123 | 
4 | CC(C)C[C@H](NC(=O)CNC(=O)[C@H](Cc1ccccc1)NC(=O)[C@@H](NC(=O)[C@H](CO)NC(=O)[C@@H]1CCCN1C(=O)[C@@H](NC(=O)[C@@H](NC(=O)[C@H](CCCCN)NC(=O)[C@H](CO)NC(=O)[C@H](C)NC(=O)[C@H](CC(C)C)NC(=O)[C@H](CCCCN)NC(=O)[C@H](Cc1ccccc1)NC(=O)[C@@H](NC(=O)[C@H](C)NC(=O)[C@@H]1CCCN1C(=O)[C@@H](N)CC(C)C)C(C)C)C(C)C)C(C)C)C(C)C)C(=O)N[C@H](C(=O)N[C@@H](CCCCN)C(=O)O)C(C)C [LPAVFKLASKVVPSVFGLVK] |  | > 122 | ≥ 122 | 
5 | CC(C)C[C@H](NC(=O)[C@@H](N)Cc1ccccc1)C(=O)N[C@@H](CCCCN)C(=O)N[C@H](C(=O)N[C@H](C(=O)N[C@@H](Cc1ccccc1)C(=O)N[C@@H](CCCCN)C(=O)N[C@@H](CCCCN)C(=O)N[C@@H](C)C(=O)N[C@@H](CO)C(=O)N[C@@H](CCCCN)C(=O)N[C@H](C(=O)N[C@@H](Cc1ccccc1)C(=O)N1CCC[C@H]1C(=O)N[C@@H](C)C(=O)N[C@H](C(=O)N[C@@H](Cc1ccccc1)C(=O)NCC(=O)N[C@@H](CCCCN)C(=O)N[C@H](C(=O)O)C(C)C)C(C)C)C(C)C)C(C)C)C(C)C [FLKVVFKKASKVFPAVFGKV] |  | 57.1 (≈ 128 µg/mL) | ≥ 57.1 | > 57.1
6 | CC[C@H](C)[C@H](NC(=O)[C@H](Cc1ccccc1)NC(=O)CN)C(=O)NCC(=O)N[C@@H](CCCCN)C(=O)N[C@@H](CC(C)C)C(=O)N[C@@H](C)C(=O)N[C@@H](CO)C(=O)N[C@@H](CCCCN)C(=O)N[C@H](C(=O)N[C@H](C(=O)N1CCC[C@H]1C(=O)N[C@@H](CO)C(=O)N[C@H](C(=O)N[C@@H](Cc1ccc(O)cc1)C(=O)N[C@@H](CS)C(=O)N[C@@H](CCCCN)C(=O)N[C@H](C(=O)N[C@H](C(=O)NCC(=O)O)[C@@H](C)O)C(C)C)C(C)C)C(C)C)C(C)C [GFIGKLASKVVPSVYCKVTG] |  | 62.3 (≈ 128 µg/mL) | ≥ 125 | 
7 | CC[C@H](C)[C@H](NC(=O)[C@H](C)NC(=O)CNC(=O)[C@H](Cc1ccccc1)NC(=O)[C@@H](NC(=O)[C@H](CO)NC(=O)[C@@H]1CCCN1C(=O)[C@@H](NC(=O)[C@@H](NC(=O)[C@H](CCCCN)NC(=O)[C@H](CO)NC(=O)[C@H](C)NC(=O)[C@H](CC(C)C)NC(=O)[C@H](CO)NC(=O)CNC(=O)[C@@H](NC(=O)[C@@H](N)Cc1ccccc1)C(C)C)C(C)C)C(C)C)C(C)C)C(=O)N[C@@H](CCCCN)C(=O)N[C@H](C(=O)N[C@@H](CCCCN)C(=O)O)[C@@H](C)O [FVGSLASKVVPSVFGAIKTK] |  | > 126 | ≥ 126 | 
8 | CC(C)C[C@H](NC(=O)[C@H](CCCCN)NC(=O)[C@H](Cc1ccccc1)NC(=O)[C@@H](NC(=O)[C@H](CCCCN)NC(=O)CNC(=O)[C@H](CC(C)C)NC(=O)[C@@H](N)Cc1ccccc1)C(C)C)C(=O)N[C@@H](C)C(=O)N[C@@H](CO)C(=O)N[C@@H](CCCCN)C(=O)N[C@H](C(=O)N[C@@H](Cc1ccccc1)C(=O)N1CCC[C@H]1C(=O)N[C@@H](CCCCN)C(=O)N[C@H](C(=O)N[C@@H](Cc1ccccc1)C(=O)NCC(=O)N[C@@H](CCCCN)C(=O)N[C@H](C(=O)O)C(C)C)C(C)C)C(C)C [FLGKVFKLASKVFPKVFGKV] |  | 7.14 (≈ 16 µg/mL) | 14.3 (≈ 32 µg/mL) | 28.6 (≈ 64 µg/mL)
9 | CC(C)C[C@H](NC(=O)[C@H](CCCCN)NC(=O)[C@H](Cc1ccccc1)NC(=O)[C@@H](NC(=O)[C@@H](NC(=O)CNC(=O)[C@H](CC(C)C)NC(=O)[C@@H](N)Cc1ccccc1)C(C)C)C(C)C)C(=O)N[C@@H](C)C(=O)N[C@@H](CO)C(=O)N[C@@H](CCCCN)C(=O)N[C@H](C(=O)N[C@@H](Cc1ccccc1)C(=O)NCC(=O)N[C@@H](C)C(=O)N[C@H](C(=O)N[C@@H](Cc1ccccc1)C(=O)NCC(=O)N[C@@H](CCCCN)C(=O)N[C@H](C(=O)O)C(C)C)C(C)C)C(C)C [FLGVVFKLASKVFGAVFGKV] |  | > 121 | 7.57 (≈ 16 µg/mL) | 3.79 (≈ 8 µg/mL)

The remaining lines, values ahead:

Row | MIC [1] [µM] | MIC [2] [µM] | MIC [3] [µM] | MIC [4] [µM] | Compound
10 |  | > 122 | ≥ 122 |  | CC[C@H](C)[C@H](NC(=O)[C@@H](NC(=O)[C@H](C)NC(=O)[C@H](C)NC(=O)[C@@H](NC(=O)[C@H](CCCN=C(N)N)NC(=O)[C@H](CO)NC(=O)[C@H](CO)NC(=O)[C@@H](NC(=O)[C@@H](NC(=O)[C@H](CC(C)C)NC(=O)[C@@H](NC(=O)[C@H](Cc1ccccc1)NC(=O)[C@@H]1CCCN1C(=O)[C@H](CO)NC(=O)[C@@H](N)CCCCN)C(C)C)C(C)C)C(C)C)C(C)C)C(C)C)C(=O)N[C@@H](CCCCN)C(=O)N[C@@H](CO)C(=O)N[C@@H](CC(C)C)C(=O)N1CCC[C@H]1C(=O)O [KSPFVLVVSSRVAAVIKSLP]
11 |  | 58.6 (≈ 128 µg/mL) | 7.32 (≈ 16 µg/mL) | 7.32 (≈ 16 µg/mL) | CC(C)C[C@H](NC(=O)[C@H](CCCCN)NC(=O)[C@H](Cc1ccccc1)NC(=O)[C@@H](NC(=O)[C@@H](NC(=O)[C@H](CCCCN)NC(=O)[C@H](CC(C)C)NC(=O)[C@@H](N)Cc1ccccc1)C(C)C)C(C)C)C(=O)N[C@@H](C)C(=O)N[C@@H](CO)C(=O)N[C@@H](CCCCN)C(=O)N[C@H](C(=O)N[C@@H](Cc1ccccc1)C(=O)NCC(=O)N[C@@H](C)C(=O)N[C@H](C(=O)N[C@@H](Cc1ccccc1)C(=O)NCC(=O)N[C@@H](CCCCN)C(=O)N[C@H](C(=O)O)C(C)C)C(C)C)C(C)C [FLKVVFKLASKVFGAVFGKV]
12 |  | 14.4 (≈ 32 µg/mL) | 7.19 (≈ 16 µg/mL) | 1.8 (≈ 4 µg/mL) | CC(C)C[C@H](NC(=O)[C@H](CCCCN)NC(=O)[C@H](Cc1ccccc1)NC(=O)[C@@H](NC(=O)[C@@H](NC(=O)[C@H](CCCCN)NC(=O)[C@H](CC(C)C)NC(=O)[C@@H](N)Cc1ccccc1)C(C)C)C(C)C)C(=O)N[C@@H](C)C(=O)N[C@@H](CO)C(=O)N[C@@H](CCCCN)C(=O)N[C@H](C(=O)N[C@@H](Cc1ccccc1)C(=O)N1CCC[C@H]1C(=O)N[C@@H](C)C(=O)N[C@H](C(=O)N[C@@H](Cc1ccccc1)C(=O)NCC(=O)N[C@@H](CCCCN)C(=O)N[C@H](C(=O)O)C(C)C)C(C)C)C(C)C [FLKVVFKLASKVFPAVFGKV]
13 |  | 7.23 (≈ 16 µg/mL) | 3.61 (≈ 8 µg/mL) | 1.81 (≈ 4 µg/mL) | CC(C)C[C@H](NC(=O)[C@H](CCCCN)NC(=O)[C@H](Cc1ccccc1)NC(=O)[C@@H](NC(=O)[C@H](CCCCN)NC(=O)CNC(=O)[C@H](CC(C)C)NC(=O)[C@@H](N)Cc1ccccc1)C(C)C)C(=O)N[C@@H](C)C(=O)N[C@@H](CO)C(=O)N[C@@H](CCCCN)C(=O)N[C@H](C(=O)N[C@@H](Cc1ccccc1)C(=O)N[C@@H](CCCCN)C(=O)N[C@@H](C)C(=O)N[C@H](C(=O)N[C@@H](Cc1ccccc1)C(=O)NCC(=O)N[C@@H](CCCCN)C(=O)N[C@H](C(=O)O)C(C)C)C(C)C)C(C)C [FLGKVFKLASKVFKAVFGKV]
14 | ≥ 100 | > 100 |  |  | CC[C@H](C)[C@H](N)C(=O)N[C@@H](CC(N)=O)C(=O)N[C@@H](Cc1c[nH]c2ccccc12)C(=O)N[C@@H](CO)C(=O)N[C@@H](CO)C(=O)N[C@H](C(=O)N[C@@H](Cc1ccccc1)C(=O)N[C@@H](CCC(=O)O)C(=O)N[C@@H](CO)C(=O)N[C@H](C(=O)N[C@@H](CO)C(=O)N[C@@H](CC(N)=O)C(=O)N[C@@H](CC(C)C)C(=O)N[C@H](C(N)=O)C(C)C)C(C)C)[C@@H](C)CC [INWSSIFESVSNLV]
15 |  | > 126 | ≥ 126 |  | CC[C@H](C)[C@H](NC(=O)[C@H](CO)NC(=O)[C@H](C)NC(=O)[C@H](CCCCN)NC(=O)[C@H](CC(C)C)NC(=O)[C@@H](NC(=O)[C@@H](NC(=O)[C@@H]1CCCN1C(=O)[C@@H](NC(=O)[C@@H](NC(=O)[C@@H](N)CCCCN)[C@@H](C)O)C(C)C)C(C)C)C(C)C)C(=O)N[C@@H](CCCCN)C(=O)N[C@H](C(=O)N[C@@H](CO)C(=O)N[C@@H](CO)C(=O)N[C@@H](C)C(=O)NCC(=O)N[C@@H](Cc1ccccc1)C(=O)NCC(=O)N[C@@H](Cc1ccccc1)C(=O)O)C(C)C [KTVPVVLKASIKVSSAGFGF]
16 |  | 1.77 (≈ 4 µg/mL) | 14.2 (≈ 32 µg/mL) | 28.4 (≈ 64 µg/mL) | CC(C)C[C@H](NC(=O)[C@H](CCCCN)NC(=O)[C@H](Cc1ccccc1)NC(=O)[C@@H](NC(=O)[C@H](CCCCN)NC(=O)[C@H](CCCCN)NC(=O)[C@H](CC(C)C)NC(=O)[C@@H](N)Cc1ccccc1)C(C)C)C(=O)N[C@@H](C)C(=O)N[C@@H](CO)C(=O)N[C@@H](CCCCN)C(=O)N[C@H](C(=O)N[C@@H](Cc1ccccc1)C(=O)N1CCC[C@H]1C(=O)N[C@@H](C)C(=O)N[C@H](C(=O)N[C@@H](Cc1ccccc1)C(=O)NCC(=O)N[C@@H](CCCCN)C(=O)N[C@H](C(=O)O)C(C)C)C(C)C)C(C)C [FLKKVFKLASKVFPAVFGKV]
